Assay results published in patent publication US20250332266A1, “COMPOUNDS FOR THE DEGRADATION OF EGFR KINASE” (BeiGene Switzerland GmbH, priority 2022, published 2025).

Key:
[1] = target: T1, EGFR L858R/T790M/C797S (H1975-clone #25) (Homo sapiens, UniProt P00533, C797S/L858R/T790M); test: EGFR degradation, HTRF total-EGFR assay, H1975-clone #25 (LTC); format: cell-based; details: H1975-clone #25 L858R/T790M/C797S, 16 h treatment
T1 construct: expressed in transfected cells; host or cells: H1975 (clone #25), lentiviral transduction, endogenous EGFR knocked out
How it was run: (§1)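 H1975 clones with endogenous EGFR knocked out and homozygous exogenous EGFR mutants (#28 Del19/T790M/C797S; #25 L858R/T790M/C797S) treated 16 h at 37 °C, 8 doses, 5-fold from 10 μM, 0.2% DMSO. Total EGFR measured by HTRF on lysates, normalised to DMSO controls; DC50 and Dmax from curve fit.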

[2] = target: EGFR Del19/T790M/C797S (H1975-clone #28) (Homo sapiens, UniProt P00533, T790M/C797S, form not given); test: EGFR degradation, HTRF total-EGFR assay, H1975-clone #28 (DTC); format: cell-based; details: H1975-clone #28 Del19/T790M/C797S, 16 h treatment
How it was run: as §1

Sequence of EGFR Del19/T790M/C797S (H1975-clone #28) (P00533 with tags, fused parts or gaps DEL746-750/T790M/C797S, form open): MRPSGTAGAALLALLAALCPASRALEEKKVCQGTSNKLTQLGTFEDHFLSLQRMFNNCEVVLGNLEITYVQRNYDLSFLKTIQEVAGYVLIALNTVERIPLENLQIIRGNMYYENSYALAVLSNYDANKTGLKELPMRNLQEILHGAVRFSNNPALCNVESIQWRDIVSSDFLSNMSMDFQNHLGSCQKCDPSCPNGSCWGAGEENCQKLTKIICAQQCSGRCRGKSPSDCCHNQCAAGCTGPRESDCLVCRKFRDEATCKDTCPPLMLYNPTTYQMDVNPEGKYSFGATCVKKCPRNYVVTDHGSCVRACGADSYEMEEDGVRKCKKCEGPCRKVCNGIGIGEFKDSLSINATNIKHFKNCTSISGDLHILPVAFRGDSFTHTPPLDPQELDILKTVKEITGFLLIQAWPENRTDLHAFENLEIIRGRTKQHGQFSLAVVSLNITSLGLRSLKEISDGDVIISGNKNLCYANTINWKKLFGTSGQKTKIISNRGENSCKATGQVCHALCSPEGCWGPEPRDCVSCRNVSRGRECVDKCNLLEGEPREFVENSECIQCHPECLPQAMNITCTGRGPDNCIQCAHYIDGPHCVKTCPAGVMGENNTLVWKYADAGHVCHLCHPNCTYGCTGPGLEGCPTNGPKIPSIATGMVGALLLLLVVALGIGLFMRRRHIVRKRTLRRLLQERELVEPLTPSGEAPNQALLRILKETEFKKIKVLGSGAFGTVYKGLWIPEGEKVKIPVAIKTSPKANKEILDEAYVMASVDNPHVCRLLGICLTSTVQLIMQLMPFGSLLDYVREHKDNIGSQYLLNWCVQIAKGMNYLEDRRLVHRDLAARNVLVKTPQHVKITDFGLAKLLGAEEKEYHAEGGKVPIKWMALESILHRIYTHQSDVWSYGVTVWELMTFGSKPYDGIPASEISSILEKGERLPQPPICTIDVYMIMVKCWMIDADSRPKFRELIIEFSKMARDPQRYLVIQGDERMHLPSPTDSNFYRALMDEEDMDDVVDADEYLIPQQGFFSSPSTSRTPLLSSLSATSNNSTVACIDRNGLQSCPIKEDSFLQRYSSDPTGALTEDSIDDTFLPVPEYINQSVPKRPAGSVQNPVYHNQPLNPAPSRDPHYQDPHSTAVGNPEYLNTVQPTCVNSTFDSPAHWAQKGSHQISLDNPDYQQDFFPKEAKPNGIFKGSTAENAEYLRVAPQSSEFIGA
T1 sequence (P00533 25-1210 T790M/C797S/L858R): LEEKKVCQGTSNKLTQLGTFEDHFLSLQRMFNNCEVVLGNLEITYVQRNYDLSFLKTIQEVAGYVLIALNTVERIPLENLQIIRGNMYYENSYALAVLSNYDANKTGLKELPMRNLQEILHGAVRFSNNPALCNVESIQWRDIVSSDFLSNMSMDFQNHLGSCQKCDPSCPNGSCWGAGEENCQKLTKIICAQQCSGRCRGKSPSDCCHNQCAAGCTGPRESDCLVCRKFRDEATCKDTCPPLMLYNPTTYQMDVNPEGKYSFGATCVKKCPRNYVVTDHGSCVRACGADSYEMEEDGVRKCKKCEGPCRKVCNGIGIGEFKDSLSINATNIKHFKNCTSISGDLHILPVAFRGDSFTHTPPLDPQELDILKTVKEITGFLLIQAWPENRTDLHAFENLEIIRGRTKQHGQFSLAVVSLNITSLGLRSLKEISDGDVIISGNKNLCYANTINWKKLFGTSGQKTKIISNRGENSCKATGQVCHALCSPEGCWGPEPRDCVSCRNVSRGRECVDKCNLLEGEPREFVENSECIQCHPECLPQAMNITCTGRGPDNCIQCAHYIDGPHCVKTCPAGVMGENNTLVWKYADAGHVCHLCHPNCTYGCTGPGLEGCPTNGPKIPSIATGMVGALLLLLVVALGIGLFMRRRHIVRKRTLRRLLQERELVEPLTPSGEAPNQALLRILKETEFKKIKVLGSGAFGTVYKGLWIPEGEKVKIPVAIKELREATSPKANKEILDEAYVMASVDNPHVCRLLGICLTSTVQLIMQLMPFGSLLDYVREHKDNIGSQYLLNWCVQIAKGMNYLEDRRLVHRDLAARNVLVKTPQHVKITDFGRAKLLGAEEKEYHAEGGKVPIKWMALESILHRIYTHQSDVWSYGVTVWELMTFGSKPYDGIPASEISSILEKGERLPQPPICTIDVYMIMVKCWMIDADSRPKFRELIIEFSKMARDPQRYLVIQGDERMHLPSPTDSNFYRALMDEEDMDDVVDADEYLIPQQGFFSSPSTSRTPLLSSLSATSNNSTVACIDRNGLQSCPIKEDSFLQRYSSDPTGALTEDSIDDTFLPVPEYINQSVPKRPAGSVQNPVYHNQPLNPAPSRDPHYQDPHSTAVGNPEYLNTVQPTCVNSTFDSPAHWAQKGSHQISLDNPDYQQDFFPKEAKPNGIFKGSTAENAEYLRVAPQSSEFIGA

Structure (SMILES) | Degradation H1975 # 25-LTC [1] | Degradation H1975 # 28 DTC [2]
Cc1cc2cc(n1)-c1cnn(C)c1OC[C@H]1C[C@@H](CN3/C(=N/C2=O)Nc2ccc(N4CCN(C5CCN(c6cc(F)c([C@H]7CCC(=O)NC7=O)c(F)c6)CC5)[C@@H](CO)C4)cc23)C1 [Example 31, (R)-3-(4-(4-((R)-4-((7^1s,7^3S,E)-1^1,2^6-dimethyl-3-oxo-5^2,5^3-dihydro-1^1H,5^1H-9-oxa-4-aza-5(2,1)-benzo[d]imidazola-2(2,4)-pyridina-1(4,5)-pyrazola-7(1,3)-cyclobutanacyclononaphane-5^6-yl)-2-(hydroxymethyl)piperazin-1-yl)piperidin-1-yl)-2,6-difluorophenyl)piperidine-2,6-dione] | 90.5 | 84.2
Cc1cc2cc(n1)-c1cnn(C)c1OC[C@H]1C[C@@H](CN3/C(=N/C2=O)Nc2ccc(N4CCN(C5CCN(c6cnc([C@H]7CCC(=O)NC7=O)cc6C)CC5)C[C@@H]4C)cc23)C1 [Example 32, 3-(5-(4-((S)-4-((7^1s,7^3R,E)-1^1,2^6-dimethyl-3-oxo-5^1,5^3-dihydro-1^1H,5^1H-9-oxa-4-aza-5(2,1)-benzo[d]imidazola-2(2,4)-pyridina-1(4,5)-pyrazola-7(1,3)-cyclobutanacyclononaphane-5^6-yl)-3-methylpiperazin-1-yl)piperidin-1-yl)-4-methylpyridin-2-yl)piperidine-2,6-dione] | 88.8 | 88.8
Cc1cc2cc(n1)-c1cnn(C)c1OC[C@H]1C[C@@H](CN3/C(=N/C2=O)Nc2ccc(N4CCN(C5CCN(c6ccc(C7CCC(=O)NC7=O)nc6C)CC5)C[C@@H]4C)cc23)C1 (stereo partly drawn) [Example 33, 3-(5-(4-((S)-4-((7^1s,7^3R,E)-1^1,2^6-dimethyl-3-oxo-5^2,5^3-dihydro-1^1H,5^1H-9-oxa-4-aza-5(2,1)-benzo[d]imidazola-2(2,4)-pyridina-1(4,5)-pyrazola-7(1,3)-cyclobutanacyclononaphane-5^6-yl)-3-methylpiperazin-1-yl)piperidin-1-yl)-6-methylpyridin-2-yl)piperidine-2,6-dione] | 93.3 | 89.4
Cc1cc2cc(n1)-c1cnn(C)c1OC[C@H]1C[C@@H](CN3/C(=N/C2=O)Nc2ccc(N4CCN(C5CCN(c6ccc(C7CCC(=O)NC7=O)nc6C)CC5)C[C@H]4C)cc23)C1 (stereo partly drawn) [Example 34, 3-(5-(4-((R)-4-((7^1s,7^3S,E)-1^1,2^6-dimethyl-3-oxo-5^2,5^3-dihydro-1^1H,5^1H-9-oxa-4-aza-5(2,1)-benzo[d]imidazola-2(2,4)-pyridina-1(4,5)-pyrazola-7(1,3)-cyclobutanacyclononaphane-5^6-yl)-3-methylpiperazin-1-yl)piperidin-1-yl)-6-methylpyridin-2-yl)piperidine-2,6-dione] | 93.3 | 89.6
Cc1cc2cc(n1)-c1cnn(C)c1OC[C@H]1C[C@@H](CN3/C(=N/C2=O)Nc2ccc(N4CCN(C5CCN(c6ccc(C7CCC(=O)NC7=O)nc6)CC5)C(=O)C4)cc23)C1 (stereo partly shown) [Example 35, 3-(5-(4-(4-((7^1s,7^3s,E)-1^1,2^6-dimethyl-3-oxo-5^2,5^3-dihydro-1^1H,5^1H-9-oxa-4-aza-5(2,1)-benzo[d]imidazola-2(2,4)-pyridina-1(4,5)-pyrazola-7(1,3)-cyclobutanacyclononaphane-5^6-yl)-2-oxopiperazin-1-yl)piperidin-1-yl)pyridin-2-yl)piperidine-2,6-dione] | 85.9 | 72.9
Cc1cc2cc(n1)-c1cnn(C)c1OC[C@H]1C[C@@H](CN3/C(=N/C2=O)Nc2ccc(N4CCN(C5CCN(c6ccc(C7CCC(=O)NC7=O)nc6)CC5)C[C@@H]4C)cc23)C1 (stereo partly drawn) [Example 36, 3-(5-(4-((S)-4-((7^1s,7^3R,E)-1^1,2^6-dimethyl-3-oxo-5^2,5^3-dihydro-1^1H,5^1H-9-oxa-4-aza-5(2,1)-benzo[d]imidazola-2(2,4)-pyridina-1(4,5)-pyrazola-7(1,3)-cyclobutanacyclononaphane-5^6-yl)-3-methylpiperazin-1-yl)piperidin-1-yl)pyridin-2-yl)piperidine-2,6-dione] | 87.7 | 78.0
Cc1cc2cc(n1)-c1cnn(C)c1OC[C@H]1C[C@@H](CN3/C(=N/C2=O)Nc2ccc(N4CCN(CC5CN(c6cnc(C7CCC(=O)NC7=O)cc6C)C5)C[C@@H]4C)cc23)C1 (stereo partly drawn) [Example 37, 3-(5-(3-(((S)-4-((7^1s,7^3R,E)-1^1,2^6-dimethyl-3-oxo-5^2,5^3-dihydro-1^1H,5^1H-9-oxa-4-aza-5(2,1)-benzo[d]imidazola-2(2,4)-pyridina-1(4,5)-pyrazola-7(1,3)-cyclobutanacyclononaphane-5^6-yl)-3-methylpiperazin-1-yl)methyl)azetidin-1-yl)-4-methylpyridin-2-yl)piperidine-2,6-dione] | 80.7 | 79.4
Cc1cc2cc(n1)-c1cnn(C)c1OC[C@H]1C[C@@H](CN3/C(=N/C2=O)Nc2ccc(N4CCN(C5CCN(c6cnc(C7CCC(=O)NC7=O)cc6C)CC5)CC4)cc23)C1 (stereo partly shown) [Example 40, 3-(5-(4-(4-((7^1s,7^3s,E)-1^1,2^6-dimethyl-3-oxo-5^2,5^3-dihydro-1^1H,5^1H-9-oxa-4-aza-5(2,1)-benzo[d]imidazola-2(2,4)-pyridina-1(4,5)-pyrazola-7(1,3)-cyclobutanacyclononaphane-5^6-yl)piperazin-1-yl)piperidin-1-yl)-4-methylpyridin-2-yl)piperidine-2,6-dione] | 93.6 | 91.5
Cc1cc2cc(n1)-c1cnn(C)c1OC[C@H]1C[C@@H](CN3/C(=N/C2=O)Nc2ccc(N(C)C4CN(C5CCN(c6cnc(C7CCC(=O)NC7=O)cc6C)CC5)C4)cc23)C1 (stereo partly shown) [Example 41, 3-(5-(4-(3-(((7^1s,7^3s,E)-1^1,2^6-dimethyl-3-oxo-5^2,5^3-dihydro-1^1H,5^1H-9-oxa-4-aza-5(2,1)-benzo[d]imidazola-2(2,4)-pyridina-1(4,5)-pyrazola-7(1,3)-cyclobutanacyclononaphane-5^6-yl)(methyl)amino)azetidin-1-yl)piperidin-1-yl)-4-methylpyridin-2-yl)piperidine-2,6-dione] | 84.2 | 80.1
Cc1cc2cc(n1)-c1cnn(C)c1OC[C@H]1C[C@@H](CN3/C(=N/C2=O)Nc2ccc(N4C[C@H]5C[C@@H]4CN5C4CCN(c5ccc(C6CCC(=O)NC6=O)nc5C)CC4)cc23)C1 (stereo partly drawn) [Example 43, 3-(5-(4-((1R,4R)-5-((7^1s,7^3S,E)-1^1,2^6-dimethyl-3-oxo-5^2,5^3-dihydro-1^1H,5^1H-9-oxa-4-aza-5(2,1)-benzo[d]imidazola-2(2,4)-pyridina-1(4,5)-pyrazola-7(1,3)-cyclobutanacyclononaphane-5^6-yl)-2,5-diazabicyclo[2.2.1]heptan-2-yl)piperidin-1-yl)-6-methylpyridin-2-yl)piperidine-2,6-dione] | 87.1 | 75.5
Cc1cc2cc(n1)-c1cnn(C)c1OC[C@H]1C[C@@H](CN3/C(=N/C2=O)Nc2ccc(N4CCC(N5CCN(c6ccc(C7CCC(=O)NC7=O)nc6C)C[C@@H]5C)CC4)cc23)C1 (stereo partly drawn) [Example 44, 3-(5-((S)-4-(1-((7^1s,7^3R,E)-1^1,2^6-dimethyl-3-oxo-5^2,5^3-dihydro-1^1H,5^1H-9-oxa-4-aza-5(2,1)-benzo[d]imidazola-2(2,4)-pyridina-1(4,5)-pyrazola-7(1,3)-cyclobutanacyclononaphane-5^6-yl)piperidin-4-yl)-3-methylpiperazin-1-yl)-6-methylpyridin-2-yl)piperidine-2,6-dione] | 91.3 | 80.7
Cc1cc2cc(n1)-c1cnn(C)c1OC[C@H]1C[C@@H](CN3/C(=N/C2=O)Nc2ccc(N4CCC(N5C[C@@H]6C[C@H]5CN6c5ccc(C6CCC(=O)NC6=O)nc5C)CC4)cc23)C1 (stereo partly drawn) [Example 47, 3-(5-((1S,4S)-5-(1-((7^1s,7^3R,E)-1^1,2^6-dimethyl-3-oxo-5^2,5^3-dihydro-1′H,5^1H-9-oxa-4-aza-5(2,1)-benzo[d]imidazola-2(2,4)-pyridina-1(4,5)-pyrazola-7(1,3)-cyclobutanacyclononaphane-5^6-yl)piperidin-4-yl)-2,5-diazabicyclo[2.2.1]heptan-2-yl)-6-methylpyridin-2-yl)piperidine-2,6-dione] | 93.3 | 78.5
Cc1cc2cc(n1)-c1cnn(C)c1OC[C@H]1C[C@@H](CN3/C(=N/C2=O)Nc2ccc(N4CCN([C@@H]5CCN(c6ccc(C7CCC(=O)NC7=O)nc6C)C[C@H]5F)CC4)cc23)C1 (stereo partly drawn) [Example 57, 3-(5-((3R,4R)-4-(4-((7^1s,7^3S,E)-1^1,2^6-dimethyl-3-oxo-5^2,5^3-dihydro-1^1H,5^1H-9-oxa-4-aza-5(2,1)-benzo[d]imidazola-2(2,4)-pyridina-1(4,5)-pyrazola-7(1,3)-cyclobutanacyclononaphane-5^6-yl)piperazin-1-yl)-3-fluoropiperidin-1-yl)-6-methylpyridin-2-yl)piperidine-2,6-dione] | 89.9 | 87.5
Cc1cc2cc(n1)-c1cnn(C)c1OC[C@H]1C[C@@H](CN3/C(=N/C2=O)Nc2ccc(N4CCN([C@@H]5CCN(c6ccc(C7CCC(=O)NC7=O)nc6C)C[C@@H]5F)CC4)cc23)C1 (stereo partly drawn) [Example 62, 3-(5-((3S,4R)-4-(4-((7^1s,7^3S,E)-1^1,2^6-dimethyl-3-oxo-5^2,5^3-dihydro-1^1H,5^1H-9-oxa-4-aza-5(2,1)-benzo[d]imidazola-2(2,4)-pyridina-1(4,5)-pyrazola-7(1,3)-cyclobutanacyclononaphane-5^6-yl)piperazin-1-yl)-3-fluoropiperidin-1-yl)-6-methylpyridin-2-yl)piperidine-2,6-dione] | 91.5 | 89.1
